{"source": "paper PMC11597207", "about": "“Synthesis and Anti-Inflammatory and Analgesic Potentials of Ethyl 2-(2,5-Dioxo-1-Phenylpyrrolidin-3-yl)-2-Methylpropanoate” (Pharmaceuticals, 2024)", "key": {"mice": {"tested_on": "mice", "assay": "Hot plate antinociceptive test", "assay_type": "in vivo"}, "COX-1": {"molecular_target": "T1, COX-1 (Ovis aries, UniProt P05979)", "T1 construct": "purchased Cayman Chemical Batch No.: A4570", "T1 sequence (P05979 25-600)": "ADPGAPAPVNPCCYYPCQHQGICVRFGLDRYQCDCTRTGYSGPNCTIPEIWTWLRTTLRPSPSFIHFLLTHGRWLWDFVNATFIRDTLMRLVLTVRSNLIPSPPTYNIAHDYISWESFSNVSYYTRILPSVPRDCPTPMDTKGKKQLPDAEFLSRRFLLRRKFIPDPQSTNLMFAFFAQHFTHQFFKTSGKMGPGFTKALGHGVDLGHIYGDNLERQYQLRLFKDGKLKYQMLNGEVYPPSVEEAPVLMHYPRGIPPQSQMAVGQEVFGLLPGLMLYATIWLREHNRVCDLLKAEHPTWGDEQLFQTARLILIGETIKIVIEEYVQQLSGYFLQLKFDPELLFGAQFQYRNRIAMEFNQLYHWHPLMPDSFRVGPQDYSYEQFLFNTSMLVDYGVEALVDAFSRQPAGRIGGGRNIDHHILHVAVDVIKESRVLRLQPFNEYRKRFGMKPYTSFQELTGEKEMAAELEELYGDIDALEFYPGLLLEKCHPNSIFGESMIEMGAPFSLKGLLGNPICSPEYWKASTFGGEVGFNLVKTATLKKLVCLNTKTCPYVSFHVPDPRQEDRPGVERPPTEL", "assay": "COX-1 inhibitory assay", "assay_type": "biochemical, sheep", "experimental": "The inhibitory potential of synthesized MAK01 was evaluated using a COX-1 inhibitory assay. This utilized a solution of COX-1 enzymes derived from sheep, adhering to previous protocols. The COX-1 enzyme solution was prepared with a specific concentration. The concentration was set at 0.7–0.8 μg per 10 μL. The activation of the enzymes was achieved by taking and mixing 10 μL and 50 μL of the […] enzyme solution and a co-factor solution, respectively. This mixture was then cooled at 4 °C in an ice bucket for a duration of five to six minutes. As for the preparation of the co-factor solution, it began with 0.1 M Tris buffer, which was maintained at a pH of 8.0. To this buffer, 1 mM of hematin was added. Next, 0.9 mM of glutathione was mixed into the solution. Further, the solution was enriched with 0.24 mM of TMPD. After the co-factor solution, specific test samples were prepared. These samples were of a certain concentration and diluted to 20 μL in volume. These test samples were then mixed with 60 μL of the […] enzyme solution. Once the mixture was prepared, it was left undisturbed at room temperature. The duration for this standing period ranged from five to ten minutes. Subsequent to this resting period, 20 μL of 30 mM arachidonic acid was added. This addition served to initiate the reaction within the solution. Post initiation of the reaction, the solution underwent an incubation period. The solution was kept at a temperature of 37 °C. The incubation was allowed to continue for a total of 15 min. The final solution underwent an absorbance measurement. This was performed using a UV–visible spectrophotometer. Specifically, the measurement was made at a 570 nm wavelength. Similarly, the test samples in various concentrations were processed and analyzed using the same procedure. Using the absorbance value over time, the inhibition of the COX-1 enzyme was quantified.\nUsing the following formulation, the percent inhibition for each sample was calculated. % Inhibition=Abs. test sample−Abs. background/Abs. solvent blank−Abs. background×100"}, "[1]": {"assay": "Solubility observation of the isolated compound", "assay_type": "physicochemical"}}, "note": "Where “and” joins values, the source holds several entries; their conditions need not be identical. Identical values can stand only once.", "data": [{"smiles": "CCOC(=O)C(C)(C)C1CC(=O)N(c2ccccc2)C1=O", "note": "(stereo not drawn) [MAK01, ethyl 2-(2,5-dioxo-1-phenylpyrrolidin-3-yl)-2-methylpropanoate]", "values": [{"measurement": "Latency Time (Seconds) on Hot Plate", "setting": "mice; dose 50 mg/kg, 30 min", "value": "10.32 ± 0.82", "unit": "s"}, {"measurement": "Latency Time (Seconds) on Hot Plate", "setting": "mice; dose 50 mg/kg, 60 min", "value": "9.96 ± 0.16", "unit": "s"}, {"measurement": "Latency Time (Seconds) on Hot Plate", "setting": "mice; dose 50 mg/kg, 90 min", "value": "9.63 ± 0.26", "unit": "s"}, {"measurement": "Latency Time (Seconds) on Hot Plate", "setting": "mice; dose 50 mg/kg, 120 min", "value": "9.49 ± 0.25", "unit": "s"}, {"measurement": "Latency Time (Seconds) on Hot Plate", "setting": "mice; dose 50 mg/kg, 150 min", "value": "9.16 ± 0.81", "unit": "s"}, {"measurement": "Latency Time (Seconds) on Hot Plate", "setting": "mice; dose 100 mg/kg, 30 min", "value": "12.16 ± 0.51 Seconds and 12.16 ± 0.51 ^ns Seconds"}, {"measurement": "Latency Time (Seconds) on Hot Plate", "setting": "mice; dose 100 mg/kg, 60 min", "value": "11.92 ± 0.71", "unit": "s"}, {"measurement": "Latency Time (Seconds) on Hot Plate", "setting": "mice; dose 100 mg/kg, 90 min", "value": "11.76 ± 0.87 ^ns Seconds"}, {"measurement": "Latency Time (Seconds) on Hot Plate", "setting": "mice; dose 100 mg/kg, 120 min", "value": "11.14 ± 0.91 ^ns Seconds"}, {"measurement": "Latency Time (Seconds) on Hot Plate", "setting": "mice; dose 100 mg/kg, 150 min", "value": "10.96 ± 0.74", "unit": "s"}, {"measurement": "Latency Time (Seconds) on Hot Plate", "setting": "mice; dose 150 mg/kg, 30 min", "value": "12.93 ± 0.45 Seconds and 12.93 ± 0.45 ^ns Seconds"}, {"measurement": "Latency Time (Seconds) on Hot Plate", "setting": "mice; dose 150 mg/kg, 60 min", "value": "12.85 ± 0.84 ^ns Seconds"}, {"measurement": "Latency Time (Seconds) on Hot Plate", "setting": "mice; dose 150 mg/kg, 90 min", "value": "12.42 ± 0.36 ^ns Seconds"}, {"measurement": "Latency Time (Seconds) on Hot Plate", "setting": "mice; dose 150 mg/kg, 120 min", "value": "11.98 ± 0.74 ^ns Seconds"}, {"measurement": "Latency Time (Seconds) on Hot Plate", "setting": "mice; dose 150 mg/kg, 150 min", "value": "11.76 ± 0.41 ^ns Seconds"}, {"measurement": "IC50", "setting": "COX-1", "value": 1090, "unit": "µM"}, {"measurement": "COX-1 percent inhibition", "setting": "COX-1; 62.50 μg/mL", "value": 32, "unit": "%"}, {"measurement": "inhibition at 62.5 µg/mL", "setting": "COX-1; 62.50 μg/mL, read-out: COX-1 percent inhibition", "value": 31.5, "unit": "%"}, {"measurement": "COX-1 percent inhibition", "setting": "COX-1; 125 μg/mL", "value": 38, "unit": "%"}, {"measurement": "inhibition at 125 µg/mL", "setting": "COX-1; 125 μg/mL, read-out: COX-1 percent inhibition", "value": 37.5, "unit": "%"}, {"measurement": "COX-1 percent inhibition", "setting": "COX-1; 250 μg/mL", "value": 46, "unit": "%"}, {"measurement": "inhibition at 250 µg/mL", "setting": "COX-1; 250 μg/mL, read-out: COX-1 percent inhibition", "value": 45.8, "unit": "%"}, {"measurement": "COX-1 percent inhibition", "setting": "COX-1; 500 μg/mL", "value": 56, "unit": "%"}, {"measurement": "inhibition at 500 µg/mL", "setting": "COX-1; 500 μg/mL, read-out: COX-1 percent inhibition", "value": 56.5, "unit": "%"}, {"measurement": "COX-1 percent inhibition", "setting": "COX-1; 1000 μg/mL", "value": 65, "unit": "%"}, {"measurement": "inhibition at 1000 µg/mL", "setting": "COX-1; 1000 μg/mL, read-out: COX-1 percent inhibition", "value": 64.8, "unit": "%"}, {"measurement": "Solubility in organic solvents", "setting": "[1]", "value": "soluble in polar organic solvents"}]}]}
